Data on 33 compounds can be found in patent US11104661B1, “Inhibiting human integrin (α-4) (β-7)” (Morphic Therapeutic, Inc., priority 2019, dated 2021).

A value given as a limit tells only on which side of the number the result lay.

One test concerns the target T1, α4β7 (Homo sapiens, UniProt P13612+P26010).
T1 construct: endogenous in cells; host or cells: RPMI 8866 cells
T1 sequence (P13612 34-1032): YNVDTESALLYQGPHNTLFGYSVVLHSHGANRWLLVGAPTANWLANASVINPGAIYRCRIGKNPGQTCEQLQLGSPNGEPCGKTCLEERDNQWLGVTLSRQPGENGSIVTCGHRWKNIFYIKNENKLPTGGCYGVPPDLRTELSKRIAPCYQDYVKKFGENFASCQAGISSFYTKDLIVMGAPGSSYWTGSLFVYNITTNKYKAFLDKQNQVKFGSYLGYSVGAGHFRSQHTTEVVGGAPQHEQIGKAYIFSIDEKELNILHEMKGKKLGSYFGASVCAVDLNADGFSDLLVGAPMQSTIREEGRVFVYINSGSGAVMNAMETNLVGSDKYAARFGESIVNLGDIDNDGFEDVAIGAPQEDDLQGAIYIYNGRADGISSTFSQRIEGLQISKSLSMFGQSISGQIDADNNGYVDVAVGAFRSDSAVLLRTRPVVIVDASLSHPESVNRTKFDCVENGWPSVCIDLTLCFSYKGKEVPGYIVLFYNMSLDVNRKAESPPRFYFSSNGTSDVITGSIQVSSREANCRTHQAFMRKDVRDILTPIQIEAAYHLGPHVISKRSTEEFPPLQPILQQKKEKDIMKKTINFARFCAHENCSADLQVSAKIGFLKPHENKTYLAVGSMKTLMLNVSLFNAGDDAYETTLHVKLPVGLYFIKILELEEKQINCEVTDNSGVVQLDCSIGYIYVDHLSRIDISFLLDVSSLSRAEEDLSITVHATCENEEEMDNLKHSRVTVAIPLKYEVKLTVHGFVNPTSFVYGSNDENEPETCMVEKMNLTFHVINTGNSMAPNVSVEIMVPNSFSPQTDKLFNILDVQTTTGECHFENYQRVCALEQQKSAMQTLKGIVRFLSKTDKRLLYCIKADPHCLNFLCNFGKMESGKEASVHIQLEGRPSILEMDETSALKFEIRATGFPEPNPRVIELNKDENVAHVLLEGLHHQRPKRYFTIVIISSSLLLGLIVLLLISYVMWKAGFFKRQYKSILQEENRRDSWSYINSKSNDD
T1 sequence (P26010 20-798): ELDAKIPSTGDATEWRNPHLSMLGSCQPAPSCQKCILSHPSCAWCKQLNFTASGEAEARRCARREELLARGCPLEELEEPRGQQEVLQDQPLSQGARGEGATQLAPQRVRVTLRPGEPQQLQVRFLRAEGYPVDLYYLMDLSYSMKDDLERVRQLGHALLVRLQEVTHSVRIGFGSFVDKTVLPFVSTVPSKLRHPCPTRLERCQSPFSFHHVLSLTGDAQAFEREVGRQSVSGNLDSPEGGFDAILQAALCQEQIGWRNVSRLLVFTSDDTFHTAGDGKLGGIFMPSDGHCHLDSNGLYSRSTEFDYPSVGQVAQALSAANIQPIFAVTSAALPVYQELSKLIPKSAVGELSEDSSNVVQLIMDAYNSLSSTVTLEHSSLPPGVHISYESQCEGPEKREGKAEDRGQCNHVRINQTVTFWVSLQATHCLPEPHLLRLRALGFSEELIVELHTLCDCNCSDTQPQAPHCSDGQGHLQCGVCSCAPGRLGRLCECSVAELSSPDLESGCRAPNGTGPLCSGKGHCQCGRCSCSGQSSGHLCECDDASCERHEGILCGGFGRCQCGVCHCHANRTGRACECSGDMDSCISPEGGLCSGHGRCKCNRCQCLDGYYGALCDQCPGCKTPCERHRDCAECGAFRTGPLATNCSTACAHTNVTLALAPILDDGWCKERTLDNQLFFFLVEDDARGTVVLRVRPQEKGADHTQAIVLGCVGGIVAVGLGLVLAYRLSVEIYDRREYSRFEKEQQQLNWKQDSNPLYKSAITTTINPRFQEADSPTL
In words: Cell adhesion assay, RPMI8866 cells on MAdCAM coated plates (Example 7). The conditions noted are these: RPMI8866 cells adhering to recombinant human MAdCAM; Table 3; read-out: CA Assay (Example 7). It counts as cell-based. How it is done:
Three in vitro assays were used to examine the α4β7 mechanistic process used by cells: 1) ligand:receptor affinity, 2) the avidity of those interactions on a cell's surface, and 3) how those interactions fare under an imposing force. In Example 5, a Fluorescence Polarization (FP) assay is used to measure compound activity through binding competition with the fluorescein-labeled peptide. In Example 6, the potency of compounds against α4β7 is measured in the cell-based ligand binding assay (LBA), using RPMI 8866 cells incubated with the compound samples in competition with soluble MAdCAM-1 ligand. In Example 7, activity of compounds is evaluated in a cell adhesion assay that mechanistically tests what occurs in vivo when trafficking cells utilize α4β7 to adhere to MAdCAM-1 expressing HEVs of the gut during the extravasation process. In the cell adhesion assay of Example 7, a MAdCAMI1-(Fc) is coated on plastic, and α4β7 expressing cells (RPMI-8866) are allowed to adhere to the coated surface in the presence of the test compounds. Next, the force of washing with buffer is applied to cells thereby testing the strength of that adhesion. Unattached cells are removed and the remaining adherent cells are quantified.
Example 7 describes a cell adhesion assay.
To each well of a 96 well plate, 100 ug of recombinant human MAdCAM in 100 ul PBS is added and incubated overnight at 4° C. After incubation MAdCAM is removed by aspiration and 200 ul of PBS+1% BSA is added to block the plate for 2 hours at 37° C. and 5% CO2. During this incubation dilution curves of compound are made in 100% DMSO in 96 well V bottom plates. 1.75 ul of diluted compounds are then transferred to a new 96 well U bottom plate containing 20 ul of assay media (phosphate free DMEM+25 mM HEPES+1% BSA). To this an additional 155 ul of assay media is added with mixing by pipetting up and down. This mixture is allowed to incubate for 15 minutes at 37° C. and 5% CO2. After incubation 175 ul of assay media containing 2e6/mL RPMI8866 cells is added to compound containing wells without mixing and plate is allowed to incubate for another 15 minutes at 37° C. and 5% CO2. During this incubation MAdCAM coated plates are removed from incubator and washed twice with 200 ul PBS+0.1% BSA. […] This plate is then incubated at 37° C. and 5% CO2 for 1 hour. After incubation plates are washed twice with 200 ul and once with 50 ul of phenol free RPMI+1% BSA. A final 50 ul of phenol free RPMI+1% BSA is added to wells after last wash. Next 50 ul of Promega cell titer glow is added to the wells. Plate is incubated on shaker for 2 minutes at 200 RPM followed by another 8 minutes off shaker before having the luminescence read on a Biotek Citation 5 plate reader. Raw data is converted to % inhibition compared to bottom of curve and analyzed using a 4-parameter non linear curve in Prism to determine IC50 and IC90.
With `Cc1cc(C)c(-c2cc(C)c(F)c([C@H](CC(=O)O)NC(=O)C(CC(C)C)n3cc(CCN(C)C)c(C(F)(F)F)cc3=O)c2)c(C)c1` (single isomer, unassigned) [AC-P2], the IC50 was less than 5 nM.

For the compound `Cc1cc(-c2c(C)ccc(F)c2C)cc([C@H](CC(=O)O)NC(=O)C(CC(C)C)n2cc(CCN3CCC3)c(C(F)(F)F)cc2=O)c1F` (single isomer, unassigned) [AF-P2], the IC50 was less than 5 nM.

In the case of `COc1ccc(C)c(-c2cc(C)c(F)c([C@H](CC(=O)O)NC(=O)C(CC(C)C)n3cc(CCN4CCC4)c(C(F)(F)F)cc3=O)c2)c1C` (single isomer, unassigned) [AG-P2], the IC50 was less than 5 nM.

As for `Cc1cc(-c2c(C)cccc2C)cc([C@H](CC(=O)O)NC(=O)C(CC(C)C)n2cc(CCN3CC(F)C3)cc(F)c2=O)c1F` (single isomer, unassigned) [AV-P2], the IC50 was less than 5 nM.

In the case of `Cc1cccc(C)c1-c1cc([C@H](CC(=O)O)NC(=O)C(CC(C)C)n2cc(CCN3CCC3)c(C(F)(F)F)cc2=O)c(F)c(C(F)(F)F)c1` (single isomer, unassigned) [G-P2], the IC50 was less than 5 nM.

The test is the same for the next values; noted with them: RPMI8866 cells adhering to recombinant human MAdCAM; Table 4 comparative compounds; read-out: CA Assay (Example 7).
As for `Cc1cccc(C)c1-c1cccc([C@H](CC(=O)O)NC(=O)[C@H](CC(C)C)n2cc(CCN(C)C)ccc2=O)c1`, the IC50 is 5 to 10 nM.

As to `Cc1cccc(C)c1-c1cccc([C@H](CC(=O)O)NC(=O)[C@H](CC(C)C)n2ccc(CCN(C)C)cc2=O)c1`, the IC50 fell in the range of 10 to 50 nM.

Regarding `Cc1cccc(C)c1-c1cccc([C@H](CC(=O)O)NC(=O)[C@H](CC(C)C)n2cccc(CCN(C)C)c2=O)c1`, the IC50 is more than 100 nM.

As for `Cc1cccc(C)c1-c1cccc([C@H](CC(=O)O)NC(=O)[C@H](CC(C)C)n2cc(CN3CC[C@@H](F)C3)ccc2=O)c1`, the IC50 was in the range of 10 to 50 nM.

`Cc1cccc(C)c1-c1cncc([C@H](CC(=O)O)NC(=O)[C@H](CC(C)C)n2ccc(C(F)(F)F)cc2=O)c1`: the IC50 fell in the range of 10 to 50 nM.

Regarding `Cc1ccn([C@@H](CC(C)C)C(=O)N[C@@H](CC(=O)O)c2cncc(-c3c(C)cccc3C)c2)c(=O)c1`, the IC50 was 10 to 50 nM.

Consider `Cc1cccc(C)c1-c1cncc([C@H](CC(=O)O)NC(=O)C(CC(C)C)n2cc(C(F)(F)F)ccc2=O)c1` (stereo partly drawn), for which the IC50 is more than 50 nM.

`Cc1cccc(C)c1-c1cncc([C@H](CC(=O)O)NC(=O)[C@H](CC(C)C)n2cc(CN3CC(F)C3)ccc2=O)c1`: the IC50 was more than 50 nM.

Consider `Cc1cccc(C)c1-c1cncc([C@H](CC(=O)O)NC(=O)[C@H](CC(C)C)N2CC[C@@H](C(F)(F)F)CC2=O)c1`, for which the IC50 is more than 50 nM.

With `CC(C)C[C@@H](C(=O)N[C@@H](CC(=O)O)c1ccc(-c2ccc(F)cc2)cc1)n1cc(CCN(C)C)c(C(F)(F)F)cc1=O`, the IC50 is more than 500 nM.

For `CC(C)C[C@@H](C(=O)N[C@@H](CC(=O)O)c1ccc(-c2ccc(F)cc2)cc1)n1cc(CCN2CC(F)C2)cc(F)c1=O`, the IC50 was more than 500 nM.

`CC(C)C[C@@H](C(=O)N[C@@H](CC(=O)O)c1ccc(-c2ccccc2)cc1)n1cc(CCN2CC(F)C2)cc(F)c1=O`: the IC50 was more than 500 nM.

Regarding `Cc1ccccc1-c1cccc([C@H](CC(=O)O)NC(=O)[C@H](CC(C)C)n2cccc(C)c2=O)c1`, the IC50 is more than 500 nM.

Take `CC(C)C[C@@H](C(=O)N[C@@H](CC(=O)O)c1ccc(-c2ccccc2)cc1)n1cc(CCN(C)C)c(C(F)(F)F)cc1=O`: the IC50 is more than 500 nM.

Turning to `Cc1ccccc1-c1cc([C@H](CC(=O)O)NC(=O)[C@H](CC(C)C)n2ccccc2=O)ccc1C`, the IC50 was more than 500 nM.

As for `Cc1ccccc1-c1cccc([C@H](CC(=O)O)NC(=O)[C@H](CC(C)C)n2ccncc2=O)c1`, the IC50 was more than 500 nM.

Turning to `COc1cccc(F)c1-c1cccc([C@H](CC(=O)O)NC(=O)[C@H](CC(C)C)n2cnc3ccccc3c2=O)c1`, the IC50 is more than 500 nM.

`Cc1ccccc1-c1cccc([C@H](CC(=O)O)NC(=O)[C@H](CC(C)C)n2ccccc2=O)c1`: the IC50 was more than 500 nM.

Consider `Cc1ccccc1-c1cc([C@H](CC(=O)O)NC(=O)C(CC(C)C)n2ccccc2=O)ccn1` (stereo partly drawn), for which the IC50 is more than 500 nM.

With `COc1ccc([C@H](CC(=O)O)NC(=O)C(CC(C)C)n2ccccc2=O)cc1-c1ccccc1C` (stereo partly drawn), the IC50 is more than 500 nM.

Take `Cc1ccc([C@@H](C(=O)N[C@@H](CC(=O)O)c2cncc(-c3c(C)cccc3C)c2)N2CC(C)CCC2=O)cc1` (stereo partly drawn): the IC50 is more than 500 nM.

With `Cc1cccc(C)c1-c1cc([C@H](CC(=O)O)NC(=O)[C@H](CC(C)C)n2ccccc2=O)ccn1`, the IC50 is more than 500 nM.

On to `Cc1ccccc1-c1cc([C@H](CC(=O)O)NC(=O)C(CC(C)C)n2ccccc2=O)ccc1C#N` (stereo partly drawn), for which the IC50 was more than 500 nM.

As to `COC[C@@H](C(=O)N[C@@H](CC(=O)O)c1cccc(-c2c(C)cccc2C)c1)n1ccc(C)cc1=O`, the IC50 was more than 500 nM.

On to `Cc1cccc(C)c1-c1cncc([C@H](CC(=O)O)NC(=O)[C@H](CC(C)C)n2ccccc2=O)c1`, for which the IC50 was more than 100 nM.

For the compound `Cc1cccc(C)c1-c1cccc([C@H](CC(=O)O)NC(=O)[C@H](CC(C)C)n2cc(CN3CC(F)C3)ccc2=O)c1` [drawing 572], the IC50 was more than 50 nM.

For the compound `Cc1cccc(C)c1-c1cccc([C@H](CC(=O)O)NC(=O)[C@H](CC(C)C)n2cc(CN3CC(F)C3)ccc2=O)c1` [drawing 577], the IC50 was more than 50 nM.

On to `Cc1cccc(C)c1-c1cccc([C@H](CC(=O)O)NC(=O)[C@H](CC(C)C)n2cc(CN3CC(F)C3)ccc2=O)c1` [drawing 585], for which the IC50 is more than 50 nM.
